Results: ChEMBL document CHEMBL1146367, “Substituted thiophene-anthranilamides as potent inhibitors of human factor Xa” (Bioorg Med Chem, 2007)

How the values were obtained:
[1] = Binding affinity to bovine trypsin after 10 mins; parameters: species or system Bos taurus; conditions: read-out: Ki app
Prothrombin = Prothrombin (Homo sapiens, UniProt P00734); assay: Binding affinity to human thrombin after 10 mins; conditions: read-out: Ki app
Plasma = assay: Anticoagulant activity in human plasma assessed as concentration required to double prothrombin time; assay type: functional, cell-free
Coagulation factor X = Coagulation factor X (Homo sapiens, UniProt P00742); assay: Binding affinity to human factor 10a after 10 mins; conditions: read-out: Ki app
[2] = Dissociation constant, pKa of the compound; assay type: physicochemical
[3] = Half life in Beagle dog at 1 mg/kg, iv; assay type: ADME, organism-based, Canis lupus familiaris; parameters: dose 1 mg/kg, route intravenous; conditions: in vivo
[4] = Volume of distribution at steady state in Beagle dog at 1 mg/kg, iv; assay type: ADME, organism-based, Canis lupus familiaris; parameters: dose 1 mg/kg, route intravenous; conditions: in vivo, read-out: Vdss
[5] = Clearance in Beagle dog at 1 mg/kg, iv; assay type: ADME, organism-based, Canis lupus familiaris; parameters: dose 1 mg/kg, route intravenous; conditions: in vivo
[6] = Bioavailability in Beagle dog at 10 mg/kg, po; assay type: ADME, organism-based, Canis lupus familiaris; conditions: in vivo
[7] = Plasma concentration in Beagle dog at 10 mg/kg, po; assay type: ADME, organism-based, Canis lupus familiaris; parameters: dose 10 mg/kg, route oral

Sequence of Coagulation factor X (P00742 41-179 limits assumed): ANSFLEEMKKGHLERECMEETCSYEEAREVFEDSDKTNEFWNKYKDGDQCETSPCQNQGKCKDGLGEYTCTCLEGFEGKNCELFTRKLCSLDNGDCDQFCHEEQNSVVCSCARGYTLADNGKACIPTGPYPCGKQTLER
Sequence of Coagulation factor X (P00742 235-488 limits assumed): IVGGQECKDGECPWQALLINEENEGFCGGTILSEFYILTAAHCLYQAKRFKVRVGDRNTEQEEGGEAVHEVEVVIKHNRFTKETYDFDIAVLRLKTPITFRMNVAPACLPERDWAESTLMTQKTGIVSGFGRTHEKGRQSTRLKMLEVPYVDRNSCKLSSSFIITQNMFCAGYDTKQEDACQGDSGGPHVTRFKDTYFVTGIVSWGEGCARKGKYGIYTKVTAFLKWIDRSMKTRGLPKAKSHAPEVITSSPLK

| Compound | Ki [1] | Ki (Prothrombin) | Ki (Coagulation factor X) | pKa [2] | half-life [3] | Vd [4] | clearance [5] | bioavailability [6] | Cmax [7] | Cp (Plasma) |
| --- | --- | --- | --- | --- | --- | --- | --- | --- | --- | --- |
| CN1CCN(Cc2ccc3c(Cl)c(C(=O)Nc4ccc(Cl)cc4C(=O)Nc4ccc(Cl)cc4)sc3c2)CC1 | > 5 µM | > 5000 nM | 21 nM |  |  |  |  |  |  |  |
| Cc1cc(Cl)c(C(=O)Nc2ccc(Cl)cc2C(=O)Nc2ccc(Cl)cc2)s1 | > 5 µM | > 5000 nM | 24 nM |  |  |  |  |  |  |  |
| O=C(O)CN1CCN(Cc2ccc3c(Cl)c(C(=O)Nc4ccc(Cl)cc4C(=O)Nc4ccc(Cl)cc4)sc3c2)CC1 | > 5 µM | > 5000 nM | 9.5 nM |  |  |  |  |  |  |  |
| O=C(Nc1ccc(Cl)cc1)c1cc(Cl)ccc1NC(=O)c1scc(CN2CCOCC2)c1Cl | > 5 µM | 2300 nM | 6.2 nM |  |  |  |  |  |  | 59 µM |
| CCN1CCN(Cc2csc(C(=O)Nc3ccc(Cl)cc3C(=O)Nc3ccc(Cl)cc3)c2Cl)CC1 | > 5 µM | > 5000 nM | 1.6 nM |  |  |  |  |  |  | 12 µM |
| O=C(Nc1ccc(Cl)cc1)c1cc(Cl)ccc1NC(=O)c1sc(Cn2ccnc2)cc1Cl | > 5 µM | 510 nM | 7.2 nM |  |  |  |  |  |  | 24 µM |
| O=C(Nc1ccc(Cl)cc1)c1cc(Cl)ccc1NC(=O)c1scc(Cn2nccn2)c1Cl | > 5 µM | 3300 nM | 3.5 nM |  |  |  |  |  |  | 83 µM |
| CN(C)Cc1ccc2c(Cl)c(C(=O)Nc3ccc(Cl)cc3C(=O)Nc3ccc(Cl)cc3)sc2c1 | > 5 µM | > 5000 nM | 14 nM |  |  |  |  |  |  |  |
| O=C(Nc1ccc(Cl)cc1)c1cc(Cl)ccc1NC(=O)c1scc(Cn2ccnc2)c1Cl | > 5 µM | 1000 nM | 1.9 nM |  |  |  |  |  |  | 18 µM |
| O=C(Nc1ccc(Cl)cc1)c1cc(Cl)ccc1NC(=O)c1scc(Cn2ccnn2)c1Cl | > 5 µM | 2700 nM | 1.4 nM |  |  |  |  |  |  | 15 µM |
| Cc1sc(C(=O)Nc2ccc(Cl)cc2C(=O)Nc2ccc(Cl)cc2)c(Cl)c1CN1CCN(C)CC1 | > 5 µM | 4400 nM | 12 nM |  |  |  |  |  |  | 25 µM |
| CCCNCc1sc(C(=O)Nc2ccc(Cl)cc2C(=O)Nc2ccc(Cl)cc2)c(Cl)c1CNCCC | > 5 µM | 1500 nM | 7.5 nM |  |  |  |  |  |  | 19 µM |
| CC(=O)N1CCN(Cc2csc(C(=O)Nc3ccc(Cl)cc3C(=O)Nc3ccc(Cl)cc3)c2Cl)CC1 | > 5 µM | 4400 nM | 6 nM |  |  |  |  |  |  |  |
| CN(C)Cc1c(C(=O)Nc2ccc(Cl)cc2C(=O)Nc2ccc(Cl)cc2)sc2ccccc12 | > 5 µM | 1200 nM | 9 nM |  |  |  |  |  |  |  |
| CN1CCN(Cc2c(C(=O)Nc3ccc(Cl)cc3C(=O)Nc3ccc(Cl)cc3)sc3ccccc23)CC1 | > 5 µM | 1000 nM | 20 nM |  |  |  |  |  |  |  |
| O=C(Nc1ccc(Cl)cc1)c1cc(Cl)ccc1NC(=O)c1scc(Cn2ncnn2)c1Cl | > 5 µM | > 5000 nM | 2 nM |  |  |  |  |  |  | 63 µM |
| CN1CCN(Cc2csc(C(=O)Nc3ccc(Cl)cc3C(=O)Nc3ccc(Cl)cc3)c2Cl)CC1 | > 5 µM | 910 nM | 1 nM |  | 120 min | 0.7 L/kg | 5 mL/min/kg | 41% | 6.3 µM | 12 µM |
| Cc1ccc2c(Cl)c(C(=O)Nc3ccc(Cl)cc3C(=O)Nc3ccc(Cl)cc3)sc2c1 | > 5 µM | > 5000 nM | 0.95 nM |  |  |  |  |  |  |  |
| O=C(Nc1ccc(Cl)cc1)c1cc(Cl)ccc1NC(=O)c1sc2ccccc2c1Cl | > 5 µM | > 5000 nM |  |  |  |  |  |  |  |  |
| Cc1cccc2sc(C(=O)Nc3ccc(Cl)cc3C(=O)Nc3ccc(Cl)cc3)c(Cl)c12 | > 5 µM | > 5000 nM | > 5000 nM |  |  |  |  |  |  |  |
| O=C(Nc1ccc(Cl)cc1)c1cc(Cl)ccc1NC(=O)c1scc(CNCCCn2ccnc2)c1Cl | > 5 µM | 1800 nM | 4.6 nM |  |  |  |  |  |  | 24 µM |
| O=C(Nc1ccc(Cl)cc1)c1cc(Cl)ccc1NC(=O)c1sc(CN2CCOCC2)cc1Cl | > 5 µM | > 5000 nM | 34 nM |  |  |  |  |  |  | > 500 µM |
| CN1CCN(Cc2cc(Cl)c(C(=O)Nc3ccc(Cl)cc3C(=O)Nc3ccc(Cl)cc3)s2)CC1 | > 5 µM | 1000 nM | 5.6 nM |  |  |  |  |  |  | 13 µM |
| O=C(Nc1ccc(Cl)cc1)c1cc(Cl)ccc1NC(=O)c1scc(CN2CCSCC2)c1Cl | > 5 µM | > 5000 nM | 4.8 nM |  |  |  |  |  |  | 400 µM |
| CC1(C)OCC(COCc2csc(C(=O)Nc3ccc(Cl)cc3C(=O)Nc3ccc(Cl)cc3)c2Cl)O1 (centres undefined) | > 5 µM | > 5000 nM | 20 nM |  |  |  |  |  |  |  |
| Cc1c(C(=O)Nc2ccc(Cl)cc2C(=O)Nc2ccc(Cl)cc2)sc2ccccc12 | > 5 µM | > 5000 nM | 0.82 nM |  |  |  |  |  |  |  |
| Cc1c(CN2CCN(C)CC2)sc(C(=O)Nc2ccc(Cl)cc2C(=O)Nc2ccc(Cl)cc2)c1Cl | > 5 µM | 1500 nM | 10 nM |  |  |  |  |  |  | 58 µM |

The next lines start with results.

| Ki [1] | Ki (Prothrombin) | Ki (Coagulation factor X) | pKa [2] | half-life [3] | Vd [4] | clearance [5] | bioavailability [6] | Cmax [7] | Compound | Cp (Plasma) |
| --- | --- | --- | --- | --- | --- | --- | --- | --- | --- | --- |
| > 5 µM | 990 nM | 1.4 nM |  |  |  |  |  |  | CN(Cc1csc(C(=O)Nc2ccc(Cl)cc2C(=O)Nc2ccc(Cl)cc2)c1Cl)CC(O)CO (centres undefined) | 11 µM |
| > 5 µM | 120 nM | 0.52 nM |  |  |  |  |  |  | CCN(CC)CCN(C)Cc1csc(C(=O)Nc2ccc(Cl)cc2C(=O)Nc2ccc(Cl)cc2)c1Cl | 3.9 µM |
| > 5 µM | > 5000 nM | 2.1 nM |  |  |  |  |  |  | CS(=O)(=O)Cc1csc(C(=O)Nc2ccc(Cl)cc2C(=O)Nc2ccc(Cl)cc2)c1Cl | 14 µM |
| > 5 µM | 3200 nM | 3.4 nM |  |  |  |  |  |  | O=C(Nc1ccc(Cl)cc1)c1cc(Cl)ccc1NC(=O)c1scc(CNCCOCCO)c1Cl | 20 µM |
| > 5 µM | 3600 nM | 10 nM |  |  |  |  |  |  | COCCOCCOCc1csc(C(=O)Nc2ccc(Cl)cc2C(=O)Nc2ccc(Cl)cc2)c1Cl | 95 µM |
| > 5 µM | 310 nM | 0.38 nM |  |  |  |  |  |  | CN1CCC(N(C)Cc2csc(C(=O)Nc3ccc(Cl)cc3C(=O)Nc3ccc(Cl)cc3)c2Cl)CC1 | 3.2 µM |
| > 5 µM | 190 nM | 0.6 nM |  |  |  |  |  |  | CN(C)CCCN(C)Cc1csc(C(=O)Nc2ccc(Cl)cc2C(=O)Nc2ccc(Cl)cc2)c1Cl | 2.9 µM |
| > 5 µM | > 5000 nM | 0.8 nM |  |  |  |  |  |  | CSCc1csc(C(=O)Nc2ccc(Cl)cc2C(=O)Nc2ccc(Cl)cc2)c1Cl | > 200 µM |
| > 5 µM | 560 nM | 2.7 nM | 8.9 |  |  |  |  |  | CN(C)CCSCc1csc(C(=O)Nc2ccc(Cl)cc2C(=O)Nc2ccc(Cl)cc2)c1Cl | 19 µM |
| > 5 µM | 2400 nM | 5.7 nM |  |  |  |  |  |  | O=C(Nc1ccc(Cl)cc1)c1cc(Cl)ccc1NC(=O)c1scc(COCC(O)CO)c1Cl (centres undefined) | 30 µM |
| > 5 µM | > 5000 nM | 18 nM |  |  |  |  |  |  | Cc1csc(C(=O)Nc2ccc(Cl)cc2C(=O)Nc2ccc(Cl)cc2)c1Cl |  |
| > 5 µM | 830 nM | 0.8 nM |  |  |  |  |  |  | CN(CCO)Cc1csc(C(=O)Nc2ccc(Cl)cc2C(=O)Nc2ccc(Cl)cc2)c1Cl | 7 µM |
| > 5 µM | 1100 nM | 1.5 nM |  |  |  |  |  |  | CN(CCOCCO)Cc1csc(C(=O)Nc2ccc(Cl)cc2C(=O)Nc2ccc(Cl)cc2)c1Cl | 8.8 µM |
| > 5 µM | > 5000 nM | 12 nM |  |  |  |  |  |  | COCCOCc1csc(C(=O)Nc2ccc(Cl)cc2C(=O)Nc2ccc(Cl)cc2)c1Cl | 110 µM |
| > 5 µM | > 5000 nM | 1.7 nM |  |  |  |  |  |  | O=C(Nc1ccc(Cl)cc1)c1cc(Cl)ccc1NC(=O)c1scc(Cn2cnnn2)c1Cl | 29 µM |
| > 5 µM | 160 nM | 0.45 nM |  |  |  |  |  |  | CN(C)CCN(C)Cc1csc(C(=O)Nc2ccc(Cl)cc2C(=O)Nc2ccc(Cl)cc2)c1Cl | 4.6 µM |
| > 5 µM | 550 nM | 2.1 nM |  |  |  |  |  |  | O=C(Nc1ccc(Cl)cc1)c1cc(Cl)ccc1NC(=O)c1scc(Cn2cccn2)c1Cl | 49 µM |
| > 5 µM | 160 nM | 0.3 nM |  |  |  |  |  |  | CN(CCN1CCCC1)Cc1csc(C(=O)Nc2ccc(Cl)cc2C(=O)Nc2ccc(Cl)cc2)c1Cl | 5 µM |
| > 5 µM | 970 nM | 0.4 nM |  |  |  |  |  |  | C[S+]([O-])Cc1csc(C(=O)Nc2ccc(Cl)cc2C(=O)Nc2ccc(Cl)cc2)c1Cl (centres undefined) | 5.6 µM |
| > 5 µM | 2300 nM | 5.2 nM |  |  |  |  |  |  | CCOC(=O)CN(C)Cc1csc(C(=O)Nc2ccc(Cl)cc2C(=O)Nc2ccc(Cl)cc2)c1Cl | 160 µM |
| > 5 µM | 2400 nM | 1.6 nM |  |  |  |  |  |  | O=C(Nc1ccc(Cl)cc1)c1cc(Cl)ccc1NC(=O)c1scc(Cn2cncn2)c1Cl | 18 µM |
